# Reference: US20050058745A1, “Use of Labiatae herb preparations for extending the flavor shelf life of malt beverages” (priority 2003, published 2005)
# What was measured:
# Format in all cases: physicochemical
# [1] = 3-Methylbutanal in headspace of aged beer; conditions: 20 ppm (RA + CA: 10 ppm each)
# Procedure: The highly hopped beer from example 2 was treated with solutions of carnosic acid in ethanol, rosmarinic acid in ethanol or a mixture of carnosic acid and rosmarinic acid in ethanol as done previously. […] The bottles were fobbed to exclude air and crowned. • 3. “20 ppm CA+air” in which bottles were opened and 20 ppm CA added as above. These bottles received two puffs of air in the remaining headspace from a 25 mL bulb. They were crowned without fobbing • 4. “20 ppm RA” in which bottles were opened and 20 ppm rosmarinic acid added from a 2% solution. The bottles were fobbed and crowned. • 5. “20 ppm RA+air” which was done as in No. 4, with 20 ppm RA added. These bottles received the two puffs of air and were crowned without fobbing. • 6. “10 ppm RA+10 ppm CA” in which bottles were opened and 10 ppm each of carnosic and rosmarinic acids were added from pure solutions (178 μL of 2% solution per 12 oz bottle). Bottles were fobbed and crowned. • 7. “10 ppm RA+10 ppm CA+air” in which 10 ppm each of RA and CA was added. This treatment received two puffs of air and was not fobbed before closing. • 8. “Control+air” in which bottles were opened, given two puffs of air and crowned without fobbing. • 9. “Control” in which bottles were opened, fobbed and crowned. Treatments 2 through 9 were stored in a 40° C. hot room. At various times, bottles were opened and samples analyzed for phenylacetaldehyde and 3-methylbutanal by the method of “[…], et al. The results are shown in Table 19.
# [2] = DCIP redox potential of the beer of Example 1, with added air; conditions: 20 ppm CA, Plus Air
# Procedure: A 10 mg/mL solution of carnosic acid was prepared by taking 250 mg of 100% pure crystal by HPLC and diluting to a total volume of 25 mL with ethanol.
# The bottle dosing process from Example 1 was modified to allow for the inclusion of air. • A bottle of the beer was opened, struck sharply on the top to induce foaming (called “fobbing”), and crowned. The fobbing excludes air. The bottle was swirled and inverted. This sample was designated No CA, No Air. • A bottle was opened and dosed with 7.1 mg of CA (20 ppm) to a 12 oz bottle from 710 μL of the above solution. After addition we gave the headspace two puffs of air, from a 25 mL squeeze bulb. The bottle was crowned, swirled and inverted without fobbing. […]
# A standard solution of […] sodium salt (DCIP) at a concentration of 145 mg/dL was prepared by the method described in Methodensammlung der Mitteleuropäischen Brautechnischene Analösen Kommission, Vierte Ausgabe 2002, Editor Prof. […] The concentration of DCIP in mg/dL was measured by multiplying the mL of titer by 14.5. […]
# The beers were stored in a 39° C. box for 14 days. […] The beers to be analyzed (the four treatments above) were degassed by centrifuging at 6,000 rpm for 15 min. […] Some of the degassed beer was poured to fill a 1 cm cuvette and placed in a spectrophotometer set to record the absorbance at 520 nm. […]
# The “Redox Potential” was calculated by using the formula: [formula]
# [3] = DCIP redox potential vs CA concentration, semi-light beer; conditions: 4 hr, 2-4° C.
# Procedure: (§1) The light beer was purchased at a local market and was 2 months old at time of use. Carnosic acid was added via a 1% ethanol solution made with pure CA. The levels of addition were 0, 5, 10, 15 and 20 ppm. The beers were opened, additions made and the beers were fobbed and crowned as described in Example 4. All analyses were done in triplicate using the DCIP method as described in Example 4. The samples were refrigerated for approx. 4 hr before being degassed and analyzed.
# The same experiment was carried out with a semi-light beer with a production code indicating it was 5 months old.
# [4] = HPLC cis/trans ratio of isohumulone in beer stored at 40° C.; conditions: for Cis/Trans Ratio of Isohumulone: 20 ppm of each constituent
# Procedure: One case of bottles was opened, 20 ppm carnosic acid and 20 ppm rosmarinic acid in the form of a propylene glycol solution was added and the bottles fobbed and crowned according to the procedure detailed in Example 1. An additional case was opened, fobbed and crowned in the same manner, and designated “Control”. All bottles were put in a 40° C. temperature controlled hot room. Samples of the above beer were taken at 0 time, 7, 21, 35, 44 and 58 days for HPLC hop acid analysis by a modification of the method of Burroughs and Williams [1999]. Beer samples (100 mL) were gently poured into tall-form beakers to avoid excessive foaming. Octanol (1-2 drops) was added to minimize foam, and the beer was sparged with helium for 10-15 minutes to degas them. The degased beer was transferred to a 2 mL autosampler vial and assayed according to the method in the reference.
# The level of trans declines faster than the level of cis isomers. The trans isomers in this example are 28% of the total hop acids.
# [5] = DCIP redox potential vs CA concentration, light beer; conditions: 4 hr, 2-4° C.
# Procedure: as §1
compound,measurement,setting,value
"CC(C)c1cc2c(c(O)c1O)[C@@]1(C(=O)O)CCCC(C)(C)[C@@H]1CC2 [CA, carnosic acid]",3-Methylbutanal in the headspace of aged beer,"[1]; Day 0, 40° C., + air",3.44 Parts per million
same,3-Methylbutanal in the headspace of aged beer,"[1]; Day 0, 40° C., no air",3.24 Parts per million
same,3-Methylbutanal in the headspace of aged beer,"[1]; Day 3, 40° C., + air",3.85 Parts per million
same,3-Methylbutanal in the headspace of aged beer,"[1]; Day 3, 40° C., no air",3.13 Parts per million
same,3-Methylbutanal in the headspace of aged beer,"[1]; Day 7, 40° C., + air",3.68 Parts per million
same,3-Methylbutanal in the headspace of aged beer,"[1]; Day 7, 40° C., no air",2.98 Parts per million
same,3-Methylbutanal in the headspace of aged beer,"[1]; Day 14, 40° C., + air",3.45 Parts per million
same,3-Methylbutanal in the headspace of aged beer,"[1]; Day 14, 40° C., no air",1.82 Parts per million
same,3-Methylbutanal in the headspace of aged beer,"[1]; Day 21, 40° C., + air",5.09 Parts per million
same,3-Methylbutanal in the headspace of aged beer,"[1]; Day 21, 40° C., no air",4.66 Parts per million
same,Redox Initial,[2],37.0
same,Redox After 14 Days,[2]; 39° C.,33.8
same,Redox Potential,[3]; 5 ppm CA,47.4
same,Redox Potential,[3]; 10 ppm CA,56.6
same,Redox Potential,[3]; 15 ppm CA,64.8
same,Redox Potential,[3]; 20 ppm CA,73.9
same,time up to which the cis/trans level was helped to be maintained,"[4]; 20 ppm CA, 40° C.",about 35 days
same,Cis/Trans Ratio of Isohumulone,"[4]; Day 0, 40° C.",2.699
same,Cis/Trans Ratio of Isohumulone,"[4]; Day 7, 40° C.",2.850
same,Cis/Trans Ratio of Isohumulone,"[4]; Day 21, 40° C.",3.947
same,Cis/Trans Ratio of Isohumulone,"[4]; Day 35, 40° C.",5.450
same,Cis/Trans Ratio of Isohumulone,"[4]; Day 44, 40° C.",7.974
same,Cis/Trans Ratio of Isohumulone,"[4]; Day 58, 40° C.",9.863
same,Redox Potential,[5]; 5 ppm CA,28.1
same,Redox Potential,[5]; 10 ppm CA,40.5
same,Redox Potential,[5]; 15 ppm CA,51.6
same,Redox Potential,[5]; 20 ppm CA,67.4
"O=C(/C=C/c1ccc(O)c(O)c1)O[C@H](Cc1ccc(O)c(O)c1)C(=O)O [RA, rosmarinic acid]",3-Methylbutanal in the headspace of aged beer,"[1]; Day 0, 40° C., + air",3.13 Parts per million
same,3-Methylbutanal in the headspace of aged beer,"[1]; Day 0, 40° C., no air",4.12 Parts per million
same,3-Methylbutanal in the headspace of aged beer,"[1]; Day 3, 40° C., + air",4.14 Parts per million
same,3-Methylbutanal in the headspace of aged beer,"[1]; Day 3, 40° C., no air",3.05 Parts per million
same,3-Methylbutanal in the headspace of aged beer,"[1]; Day 7, 40° C., + air",3.95 Parts per million
same,3-Methylbutanal in the headspace of aged beer,"[1]; Day 7, 40° C., no air",2.73 Parts per million
same,3-Methylbutanal in the headspace of aged beer,"[1]; Day 14, 40° C., + air",4.28 Parts per million
same,3-Methylbutanal in the headspace of aged beer,"[1]; Day 14, 40° C., no air",3.03 Parts per million
same,3-Methylbutanal in the headspace of aged beer,"[1]; Day 21, 40° C., + air",5.06 Parts per million
same,3-Methylbutanal in the headspace of aged beer,"[1]; Day 21, 40° C., no air",4.85 Parts per million
